Experimental data from paper PMC8954792 (Viruses, 2022).
Where two headings read alike, the source gives them in different places.

Key:
cell-free SARS-CoV-2 PsV = experiment: Inactivation of cell-free SARS-CoV-2 PsV; assay type: cell-based
authentic HCoV-OC43 = experiment: CPE reduction assay, authentic HCoV-OC43; assay type: cell-based; details: HCoV-OC43 infection, RD cells, CCK-8
H5N1 PsV = experiment: microbe, parasite or virus in culture; assay type: cell-based, influenza virus; details: read-out: IC50 H5N1
H7N9 PsV = experiment: microbe, parasite or virus in culture; assay type: cell-based, influenza virus; details: read-out: IC50 H7N9
EBOV (Zaire) = experiment: microbe, parasite or virus in culture; assay type: cell-based, Ebola virus
EBOV (Sudan) = experiment: microbe, parasite or virus in culture; assay type: cell-based, Ebola virus
NiV = experiment: microbe, parasite or virus in culture; assay type: cell-based, Nipah virus
LASV = experiment: organism not typed; assay type: cell-based, Lassa fever virus
[1] = test system: authentic ZIKV PRVABC59 (2015/Puerto Rico); experiment: microbe, parasite or virus in culture; assay type: cell-based; details: read-out: IC50
VSV PsV = experiment: microbe, parasite or virus in culture; assay type: cell-based, vesicular stomatitis virus; details: read-out: IC50
HPV PsV = assay type: cell-based, human papilloma virus
authentic EV71 = experiment: CPE reduction assay, authentic EV71; assay type: cell-based, human enterovirus 71 virus; details: RD cells
HIV-1 6-HB = HIV-1 6-HB (Human immunodeficiency virus type 1, UniProt P04578); experiment: Inhibition of HIV-1 6-HB formation (ELISA); assay type: biochemical; details: HIV-1 6-HB formation measured by ELISA
HIV-1 6-HB, sequence (P04578 536-581, added parts left off): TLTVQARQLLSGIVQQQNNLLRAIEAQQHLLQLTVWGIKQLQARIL
HIV-1 6-HB, sequence (P04578 536-581, added parts left off): as above

HIV-1 Bal.01 PsV [2] = experiment: Sucrose density gradient assay to evaluate viral inactivation; details: HIV-1 Bal.01 PsV treated with 50 μM at 37 °C for 2 h
SARS-CoV-2 PsV [3] = assay type: cell-based
HIV-1 Bal.01 PsV [4] = experiment: HIV-1 PsV inhibition in presence of recombinant unilamellar liposomes; assay type: cell-based; details: compared with the PBS group
[5] = test system: authentic IAV H3N2 (A/Victoria/361/2011); assay type: cell-based, influenza virus
[6] = test system: authentic IAV H1N1 (A/California/04/2009); assay type: cell-based, influenza virus
Vero E6 cells = assay type: cell-based
SARS-CoV PsV [7] = test system: SARS-CoV PsV
cell-free SARS-CoV PsV [8] = test system: cell-free SARS-CoV PsV
MERS-CoV PsV [9] = test system: MERS-CoV PsV
cell-free MERS-CoV PsV [10] = test system: cell-free MERS-CoV PsV
Huh-7 cells = experiment: Cytotoxicity (CCK-8) on Huh-7 cells
hACE2-293T cells = experiment: Cytotoxicity (CCK-8) on hACE2-293T cells
SARS-CoV-2 PsV [11] = experiment: microbe, parasite or virus in culture; assay type: cell-based; details: Severe acute respiratory syndrome coronavirus 2
[12] = test system: pseudotyped SARS-CoV-2 Alpha (B.1.1.7); experiment: microbe, parasite or virus in culture; assay type: cell-based; details: Severe acute respiratory syndrome coronavirus 2, Caco-2
[13] = test system: pseudotyped SARS-CoV-2 Beta (B.1.351); experiment: microbe, parasite or virus in culture; assay type: cell-based; details: Severe acute respiratory syndrome coronavirus 2, Caco-2
[14] = test system: pseudotyped SARS-CoV-2 Gamma (P.1); experiment: microbe, parasite or virus in culture; assay type: cell-based; details: Severe acute respiratory syndrome coronavirus 2, Caco-2
[15] = test system: pseudotyped SARS-CoV-2 Omicron (B.1.1.529); experiment: microbe, parasite or virus in culture; assay type: cell-based; details: Severe acute respiratory syndrome coronavirus 2, Caco-2
[16] = test system: authentic SARS-CoV-2 WT (nCoV-SH01); experiment: microbe, parasite or virus in culture; assay type: cell-based; details: Severe acute respiratory syndrome coronavirus 2, Vero C1008
in vitro = details: dog
[17] = Cytotoxicity (CCK-8) on Huh-7 cells; details: human
SARS-CoV PsV [18] = experiment: microbe, parasite or virus in culture; details: Severe acute respiratory syndrome coronavirus
cell-free SARS-CoV PsV [19] = experiment: microbe, parasite or virus in culture; details: Severe acute respiratory syndrome coronavirus
MERS-CoV PsV [20] = experiment: microbe, parasite or virus in culture; details: Middle East respiratory syndrome-related coronavirus, Huh-7
cell-free MERS-CoV PsV [21] = experiment: microbe, parasite or virus in culture; details: Middle East respiratory syndrome-related coronavirus, Huh-7
[22] = Cytotoxicity (CCK-8) on hACE2-293T cells; details: human
[23] = Severe acute respiratory syndrome coronavirus 2

## O=C(O)c1cc(-c2ccc(C=C3SC(=S)N(CCc4ccccc4)C3=O)o2)ccc1Cl [FD001, furanyl methylidene rhodanine]
cell-free SARS-CoV-2 PsV
  EC50: 670 nM
Authentic HCoV-OC43
  IC50: 480 nM
H5N1 PsV
  IC50: 260 ± 30 nM
H7N9 PsV
  IC50: 850 ± 210 nM
EBOV (Zaire)
  IC50: 1040 ± 110 nM
EBOV (Sudan)
  IC50: 390 ± 40 nM
NiV
  IC50: 410 ± 70 nM
LASV
  IC50: 440 ± 100 nM
[1]
  IC50: 4360 nM
VSV PsV
  IC50: 20 nM
HPV PsV
  inhibition of infection of nonenveloped HPV PsV: could not inhibit
Authentic EV71
  inhibition of infection of authentic EV71: could not inhibit
HIV-1 6-HB
  IC50: 17400 nM
HIV-1 Bal.01 PsV [2]
  integrity of the viral membrane (band distribution of p24): did not disrupt the integrity of the viral membrane
SARS-CoV-2 PsV [3]
  inhibition of SARS-CoV-2 PsV infection after unbound compound washed from cells: not effective in inhibiting viral infection after washing
HIV-1 Bal.01 PsV [4]
  antiviral activity, liposomes added to HIV-1 PsV pretreated with compound: good antiviral activity
  inhibitory activity against HIV-1 PsV, compound pretreated with liposomes: no different from that of the PBS group
[5]
  inhibition of authentic IAV H3N2 infection: inhibited
[6]
  inhibition of authentic IAV H1N1 infection: inhibited
Vero E6 cells
  fluorescence intensity of treated cells (binding to cells): positively correlated with compound concentration
SARS-CoV PsV [7]
  IC50: 180 ± 20 nM
  SI CC50/IC50: 160.22
cell-free SARS-CoV PsV [8]
  EC50: 1580 ± 210 nM
  SI CC50/EC50: 18.25
MERS-CoV PsV [9]
  IC50: 290 ± 30 nM
  SI CC50/IC50: 147.07
cell-free MERS-CoV PsV [10]
  EC50: 1120 ± 160 nM
  SI CC50/EC50: 38.08
MDCK cells
  CC50: > 50000 nM
Huh-7 cells
  CC50: 42600 ± 1310 nM
hACE2-293T cells
  CC50: 28800 ± 1240 nM

## C#CCOc1ccc(CCN2C(=O)/C(=C/c3ccc(-c4ccc(Cl)c(C(=O)O)c4)o3)SC2=S)cc1 [FD007]
SARS-CoV-2 PsV [11]
  IC50: 320 nM
[12]
  IC50: 290 nM
[13]
  IC50: 810 nM
[14]
  IC50: 530 nM
[15]
  IC50: 3090 nM
[16]
  IC50: 170 nM
cell-free SARS-CoV-2 PsV; [23]
  EC50: 960 nM
H5N1 PsV; Influenza A virus, H5N1, MDCK
  IC50: 470 ± 110 nM
H7N9 PsV; Influenza A virus, H7N9, MDCK
  IC50: 2130 ± 200 nM
SARS-CoV PsV [7]
  SI CC50/IC50: 301.00
cell-free SARS-CoV PsV [8]
  SI CC50/EC50: 21.50
MERS-CoV PsV [9]
  SI CC50/IC50: >250
cell-free MERS-CoV PsV [10]
  SI CC50/EC50: >56.18
In vitro
  CC50: > 50000 nM
[17]
  CC50 at 48 h: > 50000 nM
SARS-CoV PsV [18]
  IC50: 110 ± 10 nM
cell-free SARS-CoV PsV [19]
  EC50: 1540 ± 140 nM
MERS-CoV PsV [20]
  IC50: 200 ± 30 nM
cell-free MERS-CoV PsV [21]
  EC50: 890 ± 90 nM
[22]
  CC50 at 48 h: 33100 ± 1020 nM

## C#CCOCCOc1ccc(CCN2C(=O)/C(=C/c3ccc(-c4ccc(Cl)c(C(=O)O)c4)o3)SC2=S)cc1 [FD008]
SARS-CoV-2 PsV [11]
  IC50: 460 nM
[12]
  IC50: 340 nM
[13]
  IC50: 420 nM
[14]
  IC50: 690 nM
[15]
  IC50: 740 nM
[16]
  IC50: 50 nM
cell-free SARS-CoV-2 PsV; [23]
  EC50: 410 nM
H5N1 PsV; Influenza A virus, H5N1, MDCK
  IC50: 510 ± 140 nM
H7N9 PsV; Influenza A virus, H7N9, MDCK
  IC50: 2510 ± 330 nM
SARS-CoV PsV [7]
  SI CC50/IC50: 468.80
cell-free SARS-CoV PsV [8]
  SI CC50/EC50: 123.37
MERS-CoV PsV [9]
  SI CC50/IC50: 125.48
cell-free MERS-CoV PsV [10]
  SI CC50/EC50: 56.38
In vitro
  CC50: > 50000 nM
[17]
  CC50 at 48 h: 38900 ± 1220 nM
SARS-CoV PsV [18]
  IC50: 50 ± 10 nM
cell-free SARS-CoV PsV [19]
  EC50: 190 ± 20 nM
MERS-CoV PsV [20]
  IC50: 310 ± 20 nM
cell-free MERS-CoV PsV [21]
  EC50: 690 ± 130 nM
[22]
  CC50 at 48 h: 23400 ± 780 nM

## CCOc1ccc(CCN2C(=O)/C(=C/c3ccc(-c4ccc(Cl)c(C(=O)O)c4)o3)SC2=S)cc1 [FD009]
SARS-CoV-2 PsV [11]
  IC50: 50 nM
[12]
  IC50: 550 nM
[13]
  IC50: 240 nM
[14]
  IC50: 470 nM
[15]
  IC50: 580 nM
[16]
  IC50: 30 nM
cell-free SARS-CoV-2 PsV; [23]
  EC50: 160 nM
H5N1 PsV; Influenza A virus, H5N1, MDCK
  IC50: 150 ± 40 nM
H7N9 PsV; Influenza A virus, H7N9, MDCK
  IC50: 1410 ± 270 nM
SARS-CoV-2 PsV [3]
  inhibition of SARS-CoV-2 PsV infection after unbound compound washed from cells: not effective in inhibiting viral infection after washing
cell-free SARS-CoV PsV [8]
  SI CC50/EC50: 144.75
MERS-CoV PsV [9]
  SI CC50/IC50: 98.36
cell-free MERS-CoV PsV [10]
  SI CC50/EC50: 94.97
In vitro
  CC50: > 50000 nM
[17]
  CC50 at 48 h: 27500 ± 1430 nM
SARS-CoV PsV [18]
  IC50: 30 ± 10 nM
cell-free SARS-CoV PsV [19]
  EC50: 120 ± 10 nM
MERS-CoV PsV [20]
  IC50: 280 ± 20 nM
cell-free MERS-CoV PsV [21]
  EC50: 290 ± 20 nM
[22]
  CC50 at 48 h: 17400 ± 640 nM
